Source: ChEMBL document CHEMBL5550123, “Discovery of novel pyridone-benzamide derivatives possessing a 1-methyl-2-benzimidazolinone moiety as potent EZH2 inhibitors for the treatment of B-cell lymphomas” (Bioorg Med Chem, 2024)

Columns and labels:
KARPAS-422 = assay: Antiproliferative activity against human KARPAS-422 cells assessed as inhibition of cell growth measured after 72 hrs by CCK-8 method; format: functional, cell-based; conditions: KARPAS-422, 72 h
[1] = Metabolic stability in human liver microsomes assessed as half life at 1 uM measured upto 60 mins in presence of NADPH by LC-MS/MS analysis; format: ADME, Microsome
[2] = Inhibition of EZH2 Y641F mutant (unknown origin) preincubated for 15 mins followed by substrate addition and measured after 45 mins by AlphaLISA assay; parameters: species or system Homo sapiens
[3] = Metabolic stability in human liver microsomes assessed as intrinsic clearance at 1 uM measured upto 60 mins in presence of NADPH by LC-MS/MS analysis; format: ADME, Microsome; conditions: read-out: CLH
[4] = Inhibition of EZH2 Y641N mutant (unknown origin) preincubated for 15 mins followed by substrate addition and measured after 45 mins by AlphaLISA assay; parameters: species or system Homo sapiens

Row | SMILES | IC50 (KARPAS-422) | other results
1 | CCN(c1cc(-c2ccc3c(c2)n(C2CCOCC2)c(=O)n3C)cc(C(=O)NCc2c(C)cc(C)[nH]c2=O)c1C)C1CCOCC1 | 29.9 nM | –
2 | CCN(C)C1CCC(N(CC)c2cc(-c3ccc4c(c3)n(C)c(=O)n4C3CCN(C)CC3)cc(C(=O)NCc3c(C)cc(C)[nH]c3=O)c2C)CC1 (stereo not given) | 26.4 nM | –
3 | CCN(c1cc(-c2ccc3c(c2)n(C)c(=O)n3C2CCN(C)CC2)cc(C(=O)NCc2c(C)cc(C)[nH]c2=O)c1C)C1CCN(C2COC2)CC1 | 219 nM | –
4 | CCN(c1cc(-c2ccc3c(c2)n(C)c(=O)n3C2COC2)cc(C(=O)NCc2c(C)cc(C)[nH]c2=O)c1C)C1CCOCC1 | 57.4 nM | –
5 | CCN(c1cc(-c2ccc3c(c2)n(C)c(=O)n3C2CCN(CC(F)F)CC2)cc(C(=O)NCc2c(C)cc(C)[nH]c2=O)c1C)C1CCOCC1 | 50.6 nM | –
6 | CCN1CCC(n2c(=O)n(C)c3cc(-c4cc(C(=O)NCc5c(C)cc(C)[nH]c5=O)c(C)c(N(CC)C5CCOCC5)c4)ccc32)CC1 | 23.5 nM | –
7 | CCN(c1cc(-c2ccc3c(c2)n(C)c(=O)n3C2CCOCC2)cc(C(=O)NCc2c(C)cc(C)[nH]c2=O)c1C)C1CCOCC1 | 49.5 nM | –
8 | CCN(c1cc(-c2ccc3c(c2)n(C)c(=O)n3C2CCN(C)CC2)cc(C(=O)NCc2c(C)cc(C)[nH]c2=O)c1C)C1CCN(C)CC1 | 173 nM | –
9 | CCN(c1cc(-c2ccc3c(c2)n(C)c(=O)n3C2CCN(CC3CC3)CC2)cc(C(=O)NCc2c(C)cc(C)[nH]c2=O)c1C)C1CCOCC1 | 24.6 nM | –
10 | CCN1CC(n2c(=O)n(C)c3ccc(-c4cc(C(=O)NCc5c(C)cc(C)[nH]c5=O)c(C)c(N(CC)C5CCOCC5)c4)cc32)C1 | 52.9 nM | –
11 | CCN(c1cc(-c2ccc3c(c2)[nH]c(=O)n3C2CCOCC2)cc(C(=O)NCc2c(C)cc(C)[nH]c2=O)c1C)C1CCOCC1 | 51.2 nM | –
12 | CCN(c1cc(-c2ccc3c(c2)n(C)c(=O)n3C2CCN(CC#N)CC2)cc(C(=O)NCc2c(C)cc(C)[nH]c2=O)c1C)C1CCOCC1 | 53.8 nM | –
13 | CCN(c1cc(-c2ccc3c(c2)n(C)c(=O)n3C2CCN(C)CC2)cc(C(=O)NCc2c(C)cc(C)[nH]c2=O)c1C)C1CCOCC1 | 18.4 nM | –
14 | CCN(c1cc(-c2ccc3c(c2)n(C2CN(C4COC4)C2)c(=O)n3C)cc(C(=O)NCc2c(C)cc(C)[nH]c2=O)c1C)C1CCOCC1 | 154 nM | –
15 | CCN(c1cc(-c2ccc3c(c2)n(C)c(=O)n3C2CN(CC(F)F)C2)cc(C(=O)NCc2c(C)cc(C)[nH]c2=O)c1C)C1CCOCC1 | 45.6 nM | –
16 | CCN(c1cc(-c2ccc3c(c2)n(C)c(=O)n3C2CN(C(=O)C3CC3)C2)cc(C(=O)NCc2c(C)cc(C)[nH]c2=O)c1C)C1CCOCC1 | 31.2 nM | –
17 | CCN(c1cc(-c2ccc3c(c2)n(C2CCN(C)CC2)c(=O)n3C)cc(C(=O)NCc2c(C)cc(C)[nH]c2=O)c1C)C1CCOCC1 | 26.3 nM | –
18 | CCC(=O)N1CCC(n2c(=O)n(C)c3cc(-c4cc(C(=O)NCc5c(C)cc(C)[nH]c5=O)c(C)c(N(CC)C5CCOCC5)c4)ccc32)CC1 | 37.7 nM | –
19 | CCN(c1cc(-c2ccc3c(c2)n(C)c(=O)n3C2CCN(C(=O)C3CC3)CC2)cc(C(=O)NCc2c(C)cc(C)[nH]c2=O)c1C)C1CCOCC1 | 27.8 nM | –

Row | SMILES | IC50 (KARPAS-422) | other results
20 | CCN(c1cc(-c2ccc3c(c2)n(C)c(=O)n3CCOC)cc(C(=O)NCc2c(C)cc(C)[nH]c2=O)c1C)C1CCOCC1 | 60.8 nM | –
21 | CCN(c1cc(-c2ccc3c(c2)n(C)c(=O)n3C2CCN(C(C)=O)CC2)cc(C(=O)NCc2c(C)cc(C)[nH]c2=O)c1C)C1CCOCC1 | 85.8 nM | –
22 | CCN(c1cc(-c2ccc3c(c2)n(C)c(=O)n3C2CN(C(C)=O)C2)cc(C(=O)NCc2c(C)cc(C)[nH]c2=O)c1C)C1CCOCC1 | 145 nM | –
23 | CCN(c1cc(-c2ccc3c(c2)n(C)c(=O)n3C2CN(CC3CC3)C2)cc(C(=O)NCc2c(C)cc(C)[nH]c2=O)c1C)C1CCOCC1 | 39.7 nM | –
24 | CCN(c1cc(-c2ccc3c(c2)n(CC)c(=O)n3C2CCOCC2)cc(C(=O)NCc2c(C)cc(C)[nH]c2=O)c1C)C1CCOCC1 | 62.5 nM | –
25 | CCN(c1cc(-c2ccc3c(c2)n(C2CN(C)C2)c(=O)n3C)cc(C(=O)NCc2c(C)cc(C)[nH]c2=O)c1C)C1CCOCC1 | 43.5 nM | –
26 | CCN(c1cc(-c2ccc3c(c2)n(C)c(=O)n3C2CCN(C3COC3)CC2)cc(C(=O)NCc2c(C)cc(C)[nH]c2=O)c1C)C1CCOCC1 | 25.5 nM | –
27 | CCN(c1cc(-c2ccc3c(c2)n(C)c(=O)n3C2CCN(C)CC2)cc(C(=O)NCc2c(C)cc(C)[nH]c2=O)c1C)C1CCC(N(C)CCOC)CC1 (stereo not given) | 9.63 nM | half-life at 1 µM [1]: 2.46 h; IC50 [2]: 0.14 nM; microsomal CLint at 1 µM [3]: 9.38 µL/min/mg; IC50 [4]: 0.17 nM
28 | CCN(c1cc(-c2ccc3c(c2)n(C)c(=O)n3C2CCN(S(C)(=O)=O)CC2)cc(C(=O)NCc2c(C)cc(C)[nH]c2=O)c1C)C1CCOCC1 | 68.4 nM | –
29 | CCN(C(=O)C1CC1)c1cc(-c2ccc3c(c2)n(C)c(=O)n3C2CCN(C)CC2)cc(C(=O)NCc2c(C)cc(C)[nH]c2=O)c1C | 29.8 nM | –
30 | CCN(c1cc(-c2ccc(CN3CCOCC3)cc2)cc(C(=O)NCc2c(C)cc(C)[nH]c2=O)c1C)C1CCOCC1 [TAZEMETOSTAT] | 35 nM | half-life at 1 µM [1]: 0.133 h; IC50 [2]: 0.37 nM; microsomal CLint at 1 µM [3]: 174 µL/min/mg; IC50 [4]: 0.85 nM
31 | CCN1CCC(n2c(=O)n(C)c3ccc(-c4cc(C(=O)NCc5c(C)cc(C)[nH]c5=O)c(C)c(N(CC)C5CCOCC5)c4)cc32)CC1 | 32.8 nM | –
32 | CCN(c1cc(-c2ccc3c(c2)n(C)c(=O)n3C2CCN(C)CC2)cc(C(=O)NCc2c(C)cc(C)[nH]c2=O)c1C)C1CCN(CC2CC2)CC1 | 159 nM | –
33 | CCN(c1cc(-c2ccc3c(c2)n(C)c(=O)n3C2CN(C)C2)cc(C(=O)NCc2c(C)cc(C)[nH]c2=O)c1C)C1CCOCC1 | 29.3 nM | –
34 | CCN(c1cc(-c2ccc3c(c2)n(C)c(=O)n3C2CN(CC#N)C2)cc(C(=O)NCc2c(C)cc(C)[nH]c2=O)c1C)C1CCOCC1 | 58.2 nM | –
35 | CCN(c1cc(-c2ccc3c(c2)n(C)c(=O)n3C2CCN(CC(F)(F)F)CC2)cc(C(=O)NCc2c(C)cc(C)[nH]c2=O)c1C)C1CCOCC1 | 52.8 nM | –
36 | CCN(c1cc(-c2ccc3c(c2)n(C)c(=O)n3C2CCN(C)CC2)cc(C(=O)NCc2c(C)cc(C)[nH]c2=O)c1C)C1CCN(C(C)=O)CC1 | 105 nM | –
37 | CCN(c1cc(-c2ccc3c(c2)n(C)c(=O)n3C2CCN(C)CC2)cc(C(=O)NCc2c(C)cc(C)[nH]c2=O)c1C)C1CCC(N(C)C2COC2)CC1 (stereo not given) | 23.2 nM | –
